Assay results: patent US20130096088A1, “Inhibitors of Protein Tyrosine Kinase Activity” (METHYLGENE INC., priority 2011, published 2013)

What follows are molecules tested against T1, VEGFR2 (KDR) (Homo sapiens, UniProt P35968) (assay: In vitro receptor tyrosine kinase assay (VEGF receptor KDR), DELFIA). Conditions: recombinant GST-VEGFR2 806-1356, ATP 0.6 uM; read-out: VEGFR IC50UM.
T1 construct: made in house; host or cells: Sf9 cells (Spodoptera frugiperda), baculovirus
Assay type: biochemical
Source text: In Vitro Receptor Tyrosine Kinase Assay (VEGF Receptor KDR)
This test measures the ability of compounds to inhibit the enzymatic activity of recombinant human VEGF receptor enzymatic activity.
A 1.6-kb cDNA corresponding to the catalytic domain of VEGFR2 (KDR) (Genbank accession number AF035121 amino acid 806 to 1356) is cloned into the Pst I site of the pDEST20 Gateway vector (Invitrogen) for the production of a GST-tagged version of that enzyme. This construct is used to generate recombinant baculovirus using the Bac-to-Bac™ system according to the manufacturer's instructions (Invitrogen).
The GST-VEGFR2806-1356 protein is expressed in Sf9 cells (Spodoptera frugiperda) upon infection with recombinant baculovirus construct. Briefly, Sf9 cells grown in suspension and maintained in serum-free medium (Sf900 II supplemented with gentamycin) at a cell density of about 2×10^6 cells/ml are infected with the above-mentioned viruses at a multiplicity of infection (MOI) of 0.1 during 72 hours at 27° C. with agitation at 120 rpm on a rotary shaker. Infected cells are harvested by centrifugation at 398 g for 15 min. Cell pellets are frozen at −80° C. until purification is performed.
All steps described in cell extraction and purification are performed at 4° C. Frozen Sf9 cell pellets infected with the GST-VEGFR2806-1356 recombinant baculovirus are thawed and gently resuspended in Buffer A (PBS pH 7.3 supplemented with 1 μg/ml pepstatin, 2 μg/ml Aprotinin and leupeptin, 50 μg/ml PMSF, 50 μg/ml TLCK and 10 μM E64 and 0.5 mM DTT) using 3 ml of buffer per gram of cells. Suspension is Dounce homogenized and 1% Triton X-100 is added to the homogenate after which it is centrifuged at 22500 g, 30 min., 4° C. The supernatant (cell extract) is used as starting material for purification of GST-VEGFR2806-1356.
The supernatant is loaded onto a GST-agarose column (Sigma) equilibrated with PBS pH 7.3. Following a four column volume (CV) wash with PBS pH 7.3+1% Triton X-100 and 4 CV wash with buffer B (50 mM Tris pH 8.0, 20% glycerol and 100 mM NaCl), bound proteins are step eluted with 5 CV of buffer B supplemented with 5 mM DTT and 15 mM glutathion. GST-VEGFR2806-1356 enriched fractions from this chromatography step are pooled based on U.V. trace i.e. fractions with high O.D.280. Final GST-VEGFR2806-1356 protein preparations concentrations are about 0.7 mg/ml with purity approximating 70%. Purified GST-VEGFR2806-1356 protein stocks are aliquoted and frozen at −80° C. prior to use in enzymatic assay.
Inhibition of VEGFR/KDR is measured in a DELFIA™ assay (Perkin Elmer). The substrate poly(Glu4,Tyr) is immobilized onto black high-binding polystyrene 96-well plates. The coated plates are washed and stored at 4° C. During the assay, the enzyme is pre-incubated with inhibitor and Mg-ATP on ice in polypropylene 96-well plates for 4 minutes, and then transferred to the coated plates. The subsequent kinase reaction takes place at 30° C. for 10-30 minutes. ATP concentrations in the assay are 0.6 uM for VEGFR/KDR (2× the Km). Enzyme concentration is 5 nM. After incubation, the kinase reactions are quenched with EDTA and the plates are washed. Phosphorylated product is detected by incubation with Europium-labeled anti-phosphotyrosine MoAb. After washing the plates, bound MoAb is detected by time-resolved fluorescence in a Gemini SpectraMax reader (Molecular Devices). Compounds are evaluated over a range of concentrations, and IC50 values (concentration of compounds giving 50% inhibition of enzymatic activity) are determined.

T1 sequence (P35968 806-1356): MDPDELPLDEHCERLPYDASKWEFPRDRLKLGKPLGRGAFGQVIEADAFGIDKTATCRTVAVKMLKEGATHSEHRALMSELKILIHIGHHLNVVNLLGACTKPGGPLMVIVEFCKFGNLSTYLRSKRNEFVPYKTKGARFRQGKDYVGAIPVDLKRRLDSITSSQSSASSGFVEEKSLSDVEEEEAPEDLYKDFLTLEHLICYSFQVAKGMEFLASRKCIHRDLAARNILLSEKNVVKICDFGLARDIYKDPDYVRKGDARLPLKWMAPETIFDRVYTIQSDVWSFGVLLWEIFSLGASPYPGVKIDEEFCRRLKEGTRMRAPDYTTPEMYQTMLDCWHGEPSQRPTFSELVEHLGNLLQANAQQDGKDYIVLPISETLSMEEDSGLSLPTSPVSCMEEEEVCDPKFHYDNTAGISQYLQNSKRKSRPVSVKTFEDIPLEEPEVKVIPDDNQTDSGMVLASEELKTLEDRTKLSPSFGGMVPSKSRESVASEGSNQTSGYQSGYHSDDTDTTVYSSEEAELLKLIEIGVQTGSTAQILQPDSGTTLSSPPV

Row | SMILES | IC50
1 | O=C(Nc1ccc(Oc2ccnc3cc(-c4ccc(CN5CCOCCOCCOCCOCCOCC5)cn4)sc23)c(F)c1)NC1CC1 [Compound 8, 1-(4-(2-(5-((1,4,7,10,13-Pentaoxa-16-azacyclooctadecan-16-yl)methyl)pyridin-2-yl)thieno[3,2-b]pyridin-7-yloxy)-3-fluorophenyl)-3-cyclopropylurea] | 13 nM
2 | COCCOCCOCCOCCOCCC(=O)OCC(=O)N1CCN(Cc2ccc(-c3cc4nccc(Oc5ccc(NC(=O)NC6CC6)cc5F)c4s3)nc2)CC1 [Compound 19] | 20 nM
3 | COCCOCCOCCOCCNC1CCN(Cc2ccc(-c3cc4nccc(Oc5ccc(NC(=O)NC6CC6)cc5F)c4s3)nc2)CC1 [Compound 22, 1-(4-(2-(5-((4-(2,5,8,11-Tetraoxamidecan-13-ylamino)piperidin-1-yl)methyl)pyridin-2-yl)thieno[3,2-b]pyridin-7-yloxy)-3-fluorophenyl)-3-cyclopropylurea] | 13 nM
4 | COCCOCCOCCOCCN(C1CCN(Cc2ccc(-c3cc4nccc(Oc5ccc(NC(=O)NC6CC6)cc5F)c4s3)nc2)CC1)S(C)(=O)=O [Compound 26] | 13 nM
5 | COCCOCCOCCOCCOCCn1cc(-c2cc3nccc(Oc4ccc(NC(=O)NC5CC5)cc4F)c3s2)nn1 [Compound 33, 1-(4-(2-(1-(2,5,8,11,14-Pentaoxahexadecan-16-yl)-1H-1,2,3-triazol-4-yl)thieno[3,2-b]pyridin-7-yloxy)-3-fluorophenyl)-3-cyclopropylurea] | 107 nM
6 | COCCOCCOCCOCCOc1ccccc1NCc1ccc(-c2cc3nccc(Oc4ccc(NC(=O)NC5CC5)cc4F)c3s2)nc1 [Compound 38, 1-(4-(2-(5-((2-(2,5,8,11-Tetraoxamidecan-13-yloxy)phenylamino)methyl)pyridin-2-yl)thieno[3,2-b]pyridin-7-yloxy)-3-fluorophenyl)-3-cyclopropylurea] | 24 nM
7 | COCCOCCOCCOCCOc1cccc(NCc2ccc(-c3cc4nccc(Oc5ccc(NC(=O)NC6CC6)cc5F)c4s3)nc2)c1 [Compound 40] | 24 nM
8 | COCCOCCOCC(=O)N1CC(N(CC(=O)O)Cc2ccc(-c3cc4nccc(Oc5ccc(NC(=O)NC6CC6)cc5F)c4s3)nc2)C1 [Compound 45, 2-(((6-(7-(4-(3-Cyclopropylureido)-2-fluorophenoxy)thieno[3,2-b]pyridin-2-yl)pyridin-3-yl)methyl)(1-(2-(2-(2-methoxyethoxy)ethoxy)acetyl)azetidin-3-yl)amino)acetic acid] | 3 nM
9 | COCCOCCOCCOCC(=O)N1CCN(Cc2ccc(-c3cc4nccc(Oc5ccc(NC(=O)NC6CC6)cc5F)c4s3)nc2)CC1 [Compound 47] | 12 nM
10 | COCCOCCOCCOCCOCC(=O)N1CCN(Cc2ccc(-c3cc4nccc(Oc5ccc(NC(=O)NC6CC6)cc5F)c4s3)nc2)CC1 [Compound 48] | 13 nM
11 | COCCOCCOCCOCCOCCOC(=O)N1CCN(Cc2ccc(-c3cc4nccc(Oc5ccc(NC(=O)NC6CC6)cc5F)c4s3)nc2)CC1 [Compound 52] | 13 nM
12 | COCCOCCOCCNC(=O)N1CCN(Cc2ccc(-c3cc4nccc(Oc5ccc(NC(=O)NC6CC6)cc5F)c4s3)nc2)CC1 [Compound 54, 4-((6-(7-(4-(3-Cyclopropylureido)-2-fluorophenoxy)thieno[3,2-b]pyridin-2-yl)pyridin-3-yl)methyl)-N-(2-(2-(2-methoxyethoxy)ethoxy)ethyl)piperazine-1-carboxamide] | 2 nM
13 | COCCOCCOCCOCCNC(=O)N1CCN(Cc2ccc(-c3cc4nccc(Oc5ccc(NC(=O)NC6CC6)cc5F)c4s3)nc2)CC1 [Compound 55] | 2 nM
14 | COCCOCCOCCOCCOCCNC(=O)N1CCN(Cc2ccc(-c3cc4nccc(Oc5ccc(NC(=O)NC6CC6)cc5F)c4s3)nc2)CC1 [Compound 56] | 2 nM
